From patent US8889126B2, “Methods and compositions for treating neuropathies” (Washington University, priority 2004, dated 2014)
Entries after “also recorded” stand apart in the source; their conditions may differ. Where two headings read alike, the source gives them in different places.

How the values were obtained:
DRG explant neurons = assay: in vitro Wallerian degeneration assay: DRG explant cultures, axonal transection by removal of neuronal cell bodies; assay type: cell-based, mouse; conditions: for neurite protection from degeneration: 1 mM in culture media for 24 hours before neurite transection; for increase in intact neurites at 48 hours after transection: 1 mM exogenous application; for effect on NAD-dependent axonal protection (NDAP): neurons cultured in 1 mM NAD, Sirtinol 100 μM, 3AB 20 mM or lentiviral siRNA, assessed 12 to 72 hr after transection
Procedure: To identify the mechanism of delayed axonal degeneration mediated by the Wld^s protein, we employed an in-vitro Wallerian degeneration model. Primary DRG explant neurons were infected with lentivirus expressing the appropriate proteins, and axons were injured by either removal of the neuronal cell body (transection) or growth in vincristine (toxic).
Mouse DRG explants from E12.5 embryos were cultured in the presence of 1 nM nerve growth factor. Non-neuronal cells were removed from the cultures by adding 5-fluorouracil to the culture medium. Transection of neurites was performed at 10-20 DIV using an 18-gauge needle to remove the neuronal cell bodies. Incubation with β-nicotinamide adenine dinucleotide (Sigma) or Sirtinol (Calbiochem) was performed using conditions indicated in the text or figures.
Lentiviral expression vectors were generated using HEK293T cells as described above. For confirmation of lentivirus-derived protein expression, HEK293T cells were infected with lentivirus and cells were lysed 3 days after infection. These lysates were analyzed by immunoblot to using anti-His tag monoclonal antibody (Qiagen) to detect expression of the respective hexahistidine-tagged proteins. Lentiviral infection of DRG neurons was performed by incubating ˜10^6-10^7 pfu/ml virus with the DRG explant for 24 h beginning 3-7 days prior to axonal transection. The infected neurons were examined under an inverted fluorescent microscope to insure detectable lentivirus-mediated transgene expression in >95% of neurons.
Quantitative analysis of axonal degeneration was performed as previously described (Zhai, et al., Neuron 39:217-25, 2003). Briefly, the cultures were examined using phase contrast microscopy at the indicated times. Axons with a fragmented, non-refractile appearance were designated as “degenerated.” At each time point, at least 200 singly distinguishable axons were blindly scored from several randomly taken images of each culture. Each condition was tested in triplicate explants in each experiment. Results were obtained from 2-4 independent experiments for each condition. Statistical analysis was performed by Student's T test. For calculations of neurite-covered area, digitally captured images from quadruplicate samples of two independent experiments were analyzed using analysis 3.1 software (Soft Imaging System, Lakewood, Colo.).
Cell culture, in vitro axotomy, and quantification of axonal degeneration. Mouse DRG explants from E12.5 embryos were cultured in the DMEM containing 10% FCS and 1 nM nerve growth factor. Non-neuronal cells were removed from the cultures by adding 5-fluorouracil to the culture media. Transection of neurites was performed at 14-21 DIV using an 18-gauge needle to remove the neuronal cell bodies. Lentiviral expression vectors were generated. Lentiviral infection was performed 3-7 days prior to axonal transection for 24 hr. Quantitative analysis of neurite degeneration was performed.

[1] = system: optic nerve (retinal ganglion cell axons); assay: optic nerve transection after intravitreal injection of NAD biosynthetic substrates, neurofilament immunoreactivity by Western blotting; assay type: in vivo, rat; conditions: 24 hours before transection, 4 days after transection
Procedure: Administration of NAD biosynthetic substrates and optic Nerve transection. Nam, NMN, NmR, or NAD was dissolved in PBS at the concentration of 100 mM or 1 M. Each of 5 μl solution was injected into left intravitreal component under the anesthesia at a rate of […]. The left optic nerve was transected at 24 hours after intravitreal injection and optic nerve was recovered at indicated time. Optic nerve tissue was homogenized in 100 μl of a buffer containing 100 mM tris-HCl (pH 6.8), 1 SDS, and 1 mM DTT. Fifty μg of protein for each sample was analyzed by the Western blotting using anti-neurofilament antibody 2H3 (Developmental Studies Hybridoma Center) and peroxidase-conjugated secondary antibody (Jackson ImmunoResearch). The degeneration rate was calculated from the ratio of the neurofilament immunoreactivity of transected vs. contralateral nerves.
Transection of optic nerve is an in vivo model which can be used to investigate mechanisms leading to Wallerian degeneration and following retinal ganglion cell (RGC) death observed in human diseases such as glaucoma. In the C57BL/Wlds mouse strain, optic nerve degeneration during Wallerian degeneration after axotomy is dramatically slowed. In addition, intravitreal injection is used for screening of compounds that protect RGC axon from degeneration in vivo and thus we can asses the axon protective effect of each NAD biosynthetic substrates in vivo by intraocular injection of compounds including NAD, NMN, NmR, and Nam. […] We initially injected 5 μl of 100 mM or 1 M NAD solution into left intravitreal compartment. After 24 hours incubation, left optic nerve was transected and control (right) and axotomized (left) optic nerve were collected at 3, 4, and 5 days after transection. Neurofilament immunoreactivity from the axotomized optic nerve was measured and normalized against the value obtained from the right side of the optic nerve.
FIG. 9 illustrates optic nerve transection after intravitreal injection of NAD biosynthetic substrates. In these experiments, NAD biosynthetic substrate NAD, NMN, NmR, or Nam was injected into the intravitreal compartment of a left rat eye and allowed to incorporate in retinal ganglion cells for 24 hours. The left optic nerve was then transected by eye enucleation. The right and left optic nerves were collected at 4 days after transection and analyzed by Western blotting. Optic nerves transected from mice without any treatment prior to axotomy served as negative controls. FIG. 9 presents quantitative analysis data, displaying percentage of remaining neurofilament immunoreactivity from transected optic nerve relative to non-transected controls. Data is presented as percent remaining immunoreactivity±S.D.

Nrk2 = assay: NAD synthesis enzyme mRNA levels (qRT-PCR) in cultured DRG neurons treated with rotenone; assay type: cell-based, rat; conditions: 0.1 μM and 1 μM rotenone, RNA collected at 24 hours
Procedure: Real-time quantitative reverse transcription-PCR analysis. All the surgical procedures were performed according to National Institute of Health guidelines for care and use of laboratory animals at Washington University. For the expression analysis following nerve injury, the sciatic nerves of a C57BL/6 mouse was transected and L4 to L5. DRGs were collected at indicated time points and pooled to extract RNA. […] Total RNAs from pooled tissue sources or DRG explant cultures were prepared. First-strand cDNA templates were prepared from 1 μg of each RNA using standard methods. Two independent cDNA syntheses were performed for each RNA sample. Quantitative reverse transcription (RT)-PCR was performed by monitoring in real-time the increase in fluorescence of the SYBR-GREEN dye on a TaqMan 7700 Sequence Detection System (Applied Biosystems).
To investigate the expression of mammalian NAD biosynthetic enzymes in the nervous system, we performed quantitative RT-PCR using RNA from mouse brain, retina, spinal code, and DRG at age of E14, P0, P7, P14 and P21. […] We also analyzed expression of NAD synthetic enzymes during the axonal degeneration caused by neurotoxin in cultured rat DRG neuron. […] FIG. 6B illustrates neurite degeneration introduced by incubation DRG in 1 or 0.1 μM rotenone for indicated time and NAD synthesis enzyme mRNA levels were determined by qRT-PCR as described in the text.

SMILES	protection against axonal degeneration (summary statement of the in vitro study) (DRG explant neurons)	neurite protection from degeneration (DRG explant neurons)	increase in intact neurites at 48 hours after transection (DRG explant neurons)	neurofilament immunoreactivity of axotomized optic nerve, of non-axotomized optic nerve ([1]; 5 μl of 100 mM intravitreal)	further results
O=C(O)c1cccnc1 [Na, nicotinic acid]	did not	failed to save neurites	–	–	–
Nc1ncnc2c1ncn2[C@@H]1O[C@H](COP(=O)(O)OP(=O)(O)OC[C@H]2O[C@@H]([n+]3cccc(C(=O)O)c3)[C@H](O)[C@@H]2O)[C@@H](O)[C@H]1O [NaAD, nicotinic acid adenine dinucleotide]	–	slight protection	less increase in intact neurites at 48 hours compared with NAD	–	–
NC(=O)c1cccc(N)c1 [3AB, 3-aminobenzamide, reference compound]	–	–	–	–	effect on NAD-dependent axonal protection (NDAP) (DRG explant neurons): had no effect on NDAP
NC(=O)c1ccc[n+]([C@@H]2O[C@H](COP(=O)([O-])O)[C@@H](O)[C@H]2O)c1 [NMN, nicotinamide mononucleotide]	have axon saving activity	successfully saved neurites from degeneration; also recorded: enough to protect axon from degeneration	comparable increase in intact neurites	60±25%	neurite protection relative to exogenously applied NAD (quantitative analysis) (DRG explant neurons; 1 mM for 24 hours before transection): neurite protection to an extent similar to that achieved by exogenously applied NAD; protection against axonal degeneration (summary statement of the in vitro study) (DRG explant neurons; listed as nicotinamide mononucleotide): protected against axonal degeneration to a similar extent as did NAD
Oc1ccc(C=Cc2cc(O)cc(O)c2)cc1 [resveratrol, reference compound]	–	–	–	–	axonal degradation after axotomy (DRG explant neurons; 10~100 μM, treated prior to axotomy): decrease in axonal degradation that was comparable to that obtained using NAD
O=C(O)c1ccc[n+]([C@@H]2O[C@H](COP(=O)(O)O)[C@@H](O)[C@H]2O)c1 [NaMN, nicotinate mononucleotide]	protected against axonal degeneration to a similar extent as did NAD	saved neurites as well as NAD	comparable increase in intact neurites	–	–
CC(NC(=O)c1ccccc1/N=C/c1c(O)ccc2ccccc12)c1ccccc1 (stereo not shown) [Sirtinol, reference compound]	–	–	–	–	effect on NAD-dependent axonal protection (NDAP) (DRG explant neurons): effectively blocked NDAP
NC(=O)c1ccc[n+]([C@@H]2O[C@H](COP(=O)([O-])OP(=O)(O)OC[C@H]3O[C@@H](n4cnc5c(N)ncnc54)[C@H](O)[C@@H]3O)[C@@H](O)[C@H]2O)c1 [NAD, β-nicotinamide adenine dinucleotide]	–	–	–	78±22%	neurofilament immunoreactivity of axotomized optic nerve, of non-axotomized optic nerve ([1]; 5 μl of 1 M intravitreal): 77±27%
C=C(C)[C@H]1Cc2c(ccc3c2O[C@@H]2COc4cc(OC)c(OC)cc4[C@@H]2C3=O)O1 [rotenone]	–	–	–	–	expression of Nrk2 (mRNA) (Nrk2): more than 6 folds
NC(=O)c1cccnc1 [Nam, nicotinamide]	does not	had no effect	–	did not show any difference from the control animals	protection against axonal degeneration (summary statement of the in vitro study) (DRG explant neurons; listed as nicotinamide): did not
NC(=O)c1ccc[n+]([C@@H]2O[C@H](CO)[C@@H](O)[C@H]2O)c1 [NmR, nicotinamide riboside]	have axon saving activity	saved neurites as well as NAD; also recorded: enough to protect axon from degeneration	comparable increase in intact neurites	72±19%	protection against axonal degeneration (summary statement of the in vitro study) (DRG explant neurons; listed as nicotinamide riboside): protected against axonal degeneration to a similar extent as did NAD
